Measurements taken from patent publication US20260022118A1, “HETEROCYCLIC COMPOUNDS AS NRAS INHIBITORS” (Board of Regents, The University of Texas System, priority 2023, published 2026).

What was measured:
[1] = tested on: THP-1 cells expressing G12D (NRAS G12D); assay: Inhibition of NRAS G12D-mediated phosphorylation of ERK (AlphaLISA p-ERK1/2) in THP-1 cells; format: cell-based; details: Homo sapiens, THP-1, 2 h, 2 hours incubation, HBSS with 0% or 10% FBS, p-ERK1/2 (Thr202/Tyr204) AlphaLISA, read-out: pERK THP-1 IC50
Protocol: Inhibition of NRAS G12D-Mediated Phosphorylation of ERK by Exemplary Compounds of Formulas I, II, and III.
This Example illustrates that exemplary compounds and salts thereof described herein inhibit the phosphorylation of ERK downstream of NRAS G12D.
THP-1 cells (ATCC TIB-202) expressing G12D were maintained in RPMI-1640 medium supplemented with 10% fetal bovine serum (FBS), 0.05 mM 2-mercaptoethanol, and penicillin/streptomycin. Cells (20,000/well) were seeded onto a 384 well plate in 20 μL of HBSS supplemented with 0% or 10% FBS. Cells were incubated in the absence or presence of various concentrations of test compound (final 1% DMSO) for 2 hours. p-ERK expression was assessed using the AlphaLISA SureFire Ultra p-ERK1/2 (Thr202/Tyr204) (PerkinElmer®, ALSU-PERK-A10K) following manufacturer recommendation. Plates were read on a PerkinElmer® Envision Multimode plate reader. Dose-response curves were analyzed using IC50 regression curve fitting (GeneData Screener). Curves were plotted as a percent control and normalized by high controls without inhibitor (100%), and low controls (0%) containing 1 μM of trametinib, a potent MEK inhibitor.

NRAS G12D C118S = NRAS G12D C118S (Homo sapiens (Human), UniProt P01111, C118S/G12D); assay: NRas G12D Surface Plasmon Resonance (SPR) binding assay; details: Avi-tagged biotinylated NRAS G12D C118S on streptavidin chip, 25° C., 1:1 kinetic or steady-state fit
Protocol: NRas G12D Surface Plasmon Resonance (SPR) Binding Assay
This Example illustrates that exemplary compounds and salts thereof described herein bind to NRAS G12D as measured by surface plasmon resonance (SPR).
Two liters of 1.03× running buffer (1.03×HBS-P+pH 7.4, containing 0.0103 M HEPES, 0.1545 M NaCl, 0.0515% v/v Surfactant P20 (Cytiva®, BR100671); 5.15 mM MgCl2 (Invitrogen, AM9530G); 0.515 mM TCEP, pH 8.0 (GoldBio®, TCEP25)) was prepared and filter sterilized using a 0.22 μm filter. A 1-L volumetric flask was filled partway with this buffer. A 30-mL volumetric flask was used to measure 30 mL of 100% DMSO (Sigma Aldrich®, 41639-100ML) which was added to the 1-L flask. The solution in the 1-L flask was brought up to 1 L with 1.03× buffer, resulting in a 1.0× assay running buffer containing 1.0×HBS-P+, 5 mM MgCl2, […], and 3% DMSO. Remaining 1.03× buffer was used for preparation of samples and immobilization running buffer.
Samples were prepared in a standard conical-bottomed 384-well microplate by adding 2 μL 10 mM DMSO cpd stock to each well, followed by 8 μL DMSO. A control compound was selected based off of its relatively “fast” kinetics that could be fitted by 1:1 kinetic fitting, as well as by steady-state fitting. Control wells for periodic injection to assess protein activity throughout the assay were also assembled, by diluting 10 mM compound 1:30 in DMSO, then adding 20 μL to the appropriate wells, such that the final concentration of compound would be 10 μM, and the final concentration of DMSO would be 3%. A Biomek™ FXP Laboratory Automation Workstation was used to stamp 20 μL DMSO into all sample wells—minus the control wells—according to the plate map, and then serially dilute 1:3 by mixing and aspirating 10 μL, delivering into the 20 μL of DMSO in the next well, resulting in 10-point serial dilution curves. A Biotek™ Multiflo EL406 Washer Dispenser was used to deliver 80 μL of 1.03× buffer to the compound plate. The plate was mixed 10× by FX, then a final dilution was performed by stamping 18 μL from the compound plate into a 384-well deep-well plate that had also been previously filled with 102 μL 1.03× buffer via the Multiflo. The solution in the deep-well plate was mixed 10× by FX, then sealed with a 384-well microplate foil from Cytiva® (Cytiva® BR100577) and placed on an orbital shaker for 30 minutes at 1000 RPM to ensure complete mixing of the DMSO solution in the buffer. A solvent correction curve was also prepared by making a 4% DMSO solution in 1.03× buffer and diluting in 1.03× buffer such that there were eight solutions of decreasing DMSO concentrations resulting in a high DMSO concentration of 4% and a low concentration of 2% DMSO.
Immobilization running buffer was prepared in a 200-mL volume by diluting 1.03× running buffer prepared above to 1.0×. A Cytiva® Streptavidin chip (Cytiva®, 29104992) was docked into a Biacore™ S200 instrument, and the instrument was then primed three times into the immobilization running buffer. A protein stock of Avi-tagged NRAS G12D C118S was prepared in-house and biotinylated using the Bulk BirA: BirA biotin-protein ligase bulk reaction kit from Avidity (Avidity®, Bulk BirA). Upon completion of the biotinylation reaction, Amicon® ultra 0.5-mL Centrifugal Filters with a MWCO of 3 k Da (Millipore® UFC500396) were used to reduce the free biotin concentration below 0.1 μM in the protein sample over the course of eight desalting cycles, according to the manufacturer's protocol. Resulting protein concentration was not measured directly as an accurate protein concentration is not required for immobilizing protein on the chip surface; however, a theoretical yield of ≤1.5 mg/mL was estimated based off of retained volumes during the desalting process. Reagents for immobilization were prepared as instructed in the Biacore™ 5200 Control Software Immobilization Wizard, including solutions of 1 M NaCl in 50 mM NaOH, and 1 M NaCl in 50 mM NaOH and 50% isopropyl alcohol. […]

Sequence of NRAS G12D C118S (P01111 whole entry G12D/C118S): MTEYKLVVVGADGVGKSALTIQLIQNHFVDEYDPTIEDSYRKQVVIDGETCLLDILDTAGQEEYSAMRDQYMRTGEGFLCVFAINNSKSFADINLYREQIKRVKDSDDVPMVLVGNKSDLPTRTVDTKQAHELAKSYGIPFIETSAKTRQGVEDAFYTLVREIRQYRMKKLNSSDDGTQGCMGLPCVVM

IC50 [1] [µM] | Kd (NRAS G12D C118S) [µM] | SMILES
0.925 | 0.085 | C#Cc1c(F)ccc2cc(O)cc(-c3ncc4c([C@H]5[C@@H]6CNC[C@@H]65)nn(C)c4c3F)c12 [Example 3, 4-(3-((1R,5S,6r)-3-azabicyclo[3.1.0]hexan-6-yl)-7-fluoro-1-methyl-1H-pyrazolo[4,3-c]pyridin-6-yl)-5-ethynyl-6-fluoronaphthalen-2-ol]
0.394 | 0.0205 | C#Cc1c(F)ccc2cc(O)cc(-c3ncc4c([C@H]5[C@@H]6CNC[C@@H]65)nn(C5CC5)c4c3F)c12 [Example 4, 4-(3-((1R,5S,6r)-3-azabicyclo[3.1.0]hexan-6-yl)-1-cyclopropyl-7-fluoro-1H-pyrazolo[4,3-c]pyridin-6-yl)-5-ethynyl-6-fluoronaphthalen-2-ol 2,2,2-trifluoroacetate]
0.269 | 0.0101 | C#Cc1c(F)ccc2cc(O)cc(-c3ncc4c([C@H]5[C@@H]6CNC[C@@H]65)cn(C5CC5)c4c3F)c12 [Example 5, 4-(3-((1R,5S,6s)-3-azabicyclo[3.1.0]hexan-6-yl)-1-cyclopropyl-7-fluoro-1H-pyrrolo[3,2-c]pyridin-6-yl)-5-ethynyl-6-fluoronaphthalen-2-ol]
– | 0.159 | C#Cc1c(F)ccc2cc(O)cc(-c3ncc4c([C@H]5[C@@H]6CNC[C@@H]65)nn(CC)c4c3F)c12 [Example 20, 4-(3-((1R,5S,6r)-3-azabicyclo[3.1.0]hexan-6-yl)-1-ethyl-7-fluoro-1H-pyrazolo[4,3-c]pyridin-6-yl)-5-ethynyl-6-fluoronaphthalen-2-ol]
13 | 1.84 | C#Cc1c(F)ccc2cc(O)cc(-c3ncc4c([C@H]5[C@@H]6CNC[C@@H]65)c(C)n(C)c4c3F)c12 [Example 21, 4-(3-((1R,5S,6s)-3-azabicyclo[3.1.0]hexan-6-yl)-7-fluoro-1,2-dimethyl-1H-pyrrolo[3,2-c]pyridin-6-yl)-5-ethynyl-6-fluoronaphthalen-2-ol]
– | 1.64 | C#Cc1c(F)ccc2cc(O)cc(-c3cc4c(cn3)c([C@H]3[C@@H]5CNC[C@@H]53)cn4C)c12 [Example 22, 4-(3-((1R,5S,6s)-3-azabicyclo[3.1.0]hexan-6-yl)-1-methyl-1H-pyrrolo[3,2-c]pyridin-6-yl)-5-ethynyl-6-fluoronaphthalen-2-ol]
– | 13.7 | C#Cc1c(F)ccc2cc(O)cc(-c3ncc4c([C@H]5[C@@H]6CNC[C@@H]65)c(CO)n(C)c4c3F)c12 [Example 23, 4-(3-((1R,5S,6s)-3-azabicyclo[3.1.0]hexan-6-yl)-7-fluoro-2-(hydroxymethyl)-1-methyl-1H-pyrrolo[3,2-c]pyridin-6-yl)-5-ethynyl-6-fluoronaphthalen-2-ol]
10.7 | 0.824 | C#Cc1c(F)ccc2cc(O)cc(-c3ncc4c([C@H]5[C@@H]6CNC[C@@H]65)nn(C(C)C)c4c3F)c12 [Example 24, 4-(3-((1R,5S,6r)-3-azabicyclo[3.1.0]hexan-6-yl)-7-fluoro-1-isopropyl-1H-pyrazolo[4,3-c]pyridin-6-yl)-5-ethynyl-6-fluoronaphthalen-2-ol]
2.07 | 0.0738 | C#Cc1c(F)ccc2cc(O)cc(-c3ncc4c(N5CC6CCC5CN6)nn(C)c4c3F)c12 (centres unmarked) [Example 26, 4-(3-(2,5-diazabicyclo[2.2.2]octan-2-yl)-7-fluoro-1-methyl-1H-pyrazolo[4,3-c]pyridin-6-yl)-5-ethynyl-6-fluoronaphthalen-2-ol]
9.56 | 3.18 | C#Cc1c(F)ccc2cc(O)cc(-c3ccc4c([C@H]5[C@@H]6CNC[C@@H]65)nn(C)c4c3F)c12 [Example 27, 4-(3-((1R,5S,6r)-3-azabicyclo[3.1.0]hexan-6-yl)-7-fluoro-1-methyl-1H-indazol-6-yl)-5-ethynyl-6-fluoronaphthalen-2-ol]
11.9 | 1.1 | C#Cc1c(F)ccc2cc(O)cc(-c3ncc4c(N5CC6CC5CN6)nn(C)c4c3F)c12 (centres unmarked) [Example 28, 4-(3-(2,5-diazabicyclo[2.2.1]heptan-2-yl)-7-fluoro-1-methyl-1H-pyrazolo[4,3-c]pyridin-6-yl)-5-ethynyl-6-fluoronaphthalen-2-ol]
3.1 | 0.965 | C#Cc1c(F)ccc2cc(O)cc(-c3c(F)cc4c([C@H]5[C@@H]6CNC[C@@H]65)cn(C)c4c3F)c12 [Example 29, 4-(3-((1R,5S,6s)-3-azabicyclo[3.1.0]hexan-6-yl)-5,7-difluoro-1-methyl-1H-indol-6-yl)-5-ethynyl-6-fluoronaphthalen-2-ol]
1.19 | 0.0519 | C#Cc1c(F)ccc2cc(O)cc(-c3ncc4c(N5C[C@@H]6CC[C@H]5CN6)nn(C)c4c3F)c12 [Example 30, 4-(3-((1S,4S)-2,5-diazabicyclo[2.2.2]octan-2-yl)-7-fluoro-1-methyl-1H-pyrazolo[4,3-c]pyridin-6-yl)-5-ethynyl-6-fluoronaphthalen-2-ol]

SMILES | IC50 [1] [µM] | Kd (NRAS G12D C118S) [µM]
C#Cc1c(F)ccc2cc(O)cc(-c3ncc4c(N5CC6CCC(C5)N6)nn(CC)c4c3F)c12 [Example 8, 4-(3-(3,8-diazabicyclo[3.2.1]octan-3-yl)-1-ethyl-7-fluoro-1H-pyrazolo[4,3-c]pyridin-6-yl)-5-ethynyl-6-fluoronaphthalen-2-ol] | 11.1 | 1.92
C#Cc1c(F)ccc2cc(O)cc(-c3ncc4c(N5CC6CCC(C5)N6)nn(C)c4c3F)c12 [Example 13, 4-(3-(3,8-diazabicyclo[3.2.1]octan-3-yl)-7-fluoro-1-methyl-1H-pyrazolo[4,3-c]pyridin-6-yl)-5-ethynyl-6-fluoronaphthalen-2-ol] | 6.74 | 0.891
C#Cc1c(F)ccc2cc(O)cc(-c3cc4[nH]nc(N5CC6CCC(C5)N6)c4cn3)c12 [Example 18, 4-(3-(3,8-diazabicyclo[3.2.1]octan-3-yl)-1H-pyrazolo[4,3-c]pyridin-6-yl)-5-ethynyl-6-fluoronaphthalen-2-ol] | – | 40.5
C#Cc1c(F)ccc2cc(O)cc(-c3cc4c(cn3)c(N3C5CCC3CNC5)nn4C)c12 [Example 19, 4-(3-(3,8-diazabicyclo[3.2.1]octan-8-yl)-1-methyl-1H-pyrazolo[4,3-c]pyridin-6-yl)-5-ethynyl-6-fluoronaphthalen-2-ol] | – | 6.1
